One data set relates to Mesograpta sp. Briefly: LR50; higher = less toxic. To be noted: chronic/long-term, mortality.
Another data set deals with Colinus virginianus. The settings on record: acute, oral, mortality.
The test system of the next data set is Pimephales promelas. To be noted: chronic/long-term; duration: 36 days.
The subject of another data set is Oncorhynchus mykiss. To be noted: acute; duration: 96 hours; mortality.
The subject of the next data set is Canidae. To be noted: chronic; duration: 1 years; oral; Dog Other; hematological.
A further data set deals with Tagia sp. To be noted: acute; duration: 14 days; mortality.
The subject of a further data set is Anas platyrhynchos. To be noted: reproductive.
For a further data set, the system named is Daphnia magna. The settings on record: chronic/long-term; duration: 21 days; reproduction.
For a further data set, the system named is Apis mellifera. To be noted: acute, duration: 24 hours, mortality.

≈ marks a conversion by molar mass, not a printed value.

A word on the NOAEL: it is the highest tested level that showed no adverse finding.

`Cc1nc(N(C)C)nc(OC(=O)N(C)C)c1C` [Pirimicarb]: the LR50 in the data set on Mesograpta sp. (duration: 16 days) and with Mesograpta sp. (duration: 28 days) was 14.6 g/ha each time. For the same compound, the LC50 with Colinus virginianus (duration: 5 days, diet) is 394 mg/kg-day; with Oncorhynchus mykiss it was 79 µg/mL (≈ 332 µM); with Tagia sp., > 60 mg/kg. Further, the LD50 in the data set with Colinus virginianus (gavage) came to 20.9 mg/kg; in the data set with Rattus norvegicus (acute, oral, F, mortality), 142 mg/kg; in the data set with Apis mellifera (dermal) it was 53.1 µg/piece; in the data set with Apis mellifera (oral, unspecified), 4 µg/piece. The NOEC with Pimephales promelas was determined as 10 mg/L; with Anas platyrhynchos, 12.1 mg/kg-day; in the data set on Daphnia magna, 0.0009 mg/L; with Rattus norvegicus (reproduction developmental), 81.8 mg/kg-day. In addition, the NOAEL with Canidae amounted to 3.5 mg/kg-day; with Rattus norvegicus (acute, oral, gavage, clinical signs), 10 mg/kg-day.

The values are drawn from EPA's ToxValDB 9.5 (doi:10.2903/j.efsa.2005.43r).
